In patent US11242344B2, “(4-hydroxypyrrolidin-2-yl)-heterocyclic compounds and methods of use thereof” (Genentech, Inc., priority 2017, dated 2022):

Key:
VHL Elongin B/C complex = VHL Elongin B/C complex (Homo sapiens (Human), UniProt P40337); experiment: Fluorescence Polarization (FP) VHL Binding Assay; settings: for IC50: VHL binding, FP assay, geometric mean where more than one measurement
Protocol: The binding of test compounds to the VHL Elongin B/C complex was measured using a fluorescence polarization tracer competition assay. The VHL/Elongin B/C protein complex used in the assay was generated as follows. The coding region for amino acids E55-D213 of human VHL with N-terminal His6 tag with a TEV-protease cleavage site was co-expressed with Elongin B (residues M1-Q118) and Elongin C (Residues M17-C112) in E. coli. […] The purified VHL/Elongin B/C complex was dialyzed into formulation buffer: 20 mM Bis-Tris pH7.0, 150 mM NaCl, 1 mM DTT. A VHL fluorescence polarization probe (prepared in Example 91), consisted of a VHL ligand coupled to carboxytetramethylrhodamine (TAMRA); […] Compounds were prepared as a serial dilution in DMSO at a concentration 25-fold higher than the final desired concentration and acoustically dispensed (400 nl) into a ProxiPlate-384 Plus F, Black 384-shallow well Microplate (Part Number 6008260). DMSO was dispensed into wells designated for “VHL control” (without compound) wells. The “Assay Buffer” consisted of 50 mM Tris pH 8.0, 120 mM NaCl, 0.005% Nonidet P-40, and 1% DMSO (v/v). Assay Buffer containing […] VHL Elongin B/C complex was prepared and 5 μl dispensed using a BioRapTR (Beckman Coulter) into each well of the assay plate. Assay Buffer was also dispensed into “no VHL control” wells using the same method. A “pre-assay” fluorescence measurement was made using an Infinite® M1000 (Tecan) plate reader (Excitation 530 nm, Emission 574 nm, Bandwidth 10 nm). Assay Buffer containing 3.34 nM of the VHL FP probe was prepared in Assay Buffer and 5 μl dispensed into each well of the assay plate using a BioRapTR (Beckman Coulter). The final VHL/Elongin B/C protein concentration is 2.64 nM and the final probe concentration is 1.67 nM. Assay plates were briefly centrifuged and incubated for 1 hour at room temperature. “Post-assay” fluorescence polarization measurements were made as described for the “pre-assay” fluorescence measurement. Fluorescence polarization was calculated for each sample; taking into account the “pre-assay” fluorescence measurements and subtracting the fluorescence signal of the compound/VHL only (“pre-assay”) measurements from the “post-assay” fluorescence polarization measurements, for each plane of polarization. The data were analyzed using Genedata Screener software and normalized to the “no VHL control” and “VHL control” (without compound). IC50 values were calculated using a four parameter curve fit (Robust method).

[1] = target: VHL co-expressed with Elongins B and C (Homo sapiens (Human), UniProt P40337); experiment: Surface Plasmon Resonance Assay; type: binding; settings: SPR measured VHL affinity; geometric mean where more than one measurement
Chain of VHL co-expressed with Elongins B and C (P40337 whole entry, looked up): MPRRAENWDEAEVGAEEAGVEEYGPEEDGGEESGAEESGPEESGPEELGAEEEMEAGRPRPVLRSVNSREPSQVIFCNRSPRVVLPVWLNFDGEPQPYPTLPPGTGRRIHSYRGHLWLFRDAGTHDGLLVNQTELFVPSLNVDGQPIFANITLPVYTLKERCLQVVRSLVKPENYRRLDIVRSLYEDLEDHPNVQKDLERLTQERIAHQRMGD
Chain of VHL co-expressed with Elongins B and C (Q15370 whole entry partner, looked up): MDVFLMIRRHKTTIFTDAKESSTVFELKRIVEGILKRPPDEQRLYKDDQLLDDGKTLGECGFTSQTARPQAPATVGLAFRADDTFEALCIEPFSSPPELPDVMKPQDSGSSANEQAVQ
Chain of VHL co-expressed with Elongins B and C (Q15369 whole entry partner, looked up): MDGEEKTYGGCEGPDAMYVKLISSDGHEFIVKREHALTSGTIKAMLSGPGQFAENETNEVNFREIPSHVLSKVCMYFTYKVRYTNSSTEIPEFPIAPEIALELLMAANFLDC
Protocol: Using a Biacore T200, […] tagged VHL co-expressed with Elongins B and C were immobilized to a Biacore SA chip in running buffer without DMSO. Compounds were tested individually at varying concentrations in running buffer (50 mM HEPES pH 7.2, 150 mM NaCl, 0.5 mM TCEP, 0.001% Tween 20, 0.2% PEG3350, 2% DMSO) at 20° C. Sensorgrams were run in order from low to high concentration using a flow rate of 80 μL/min. Association and disassociation times were varied depending on the estimated potency of the compound tested. […] Galdeano et al, J. Med. Chem. 2014, 57, 8657-8663, herein incorporated by reference) which retained greater than 75% of the activity over the course of the run. Analysis of the binding curves and determination of the kinetic parameters were done using evaluation software (Version 2.0, Biacore).

Chain of VHL Elongin B/C complex (P40337 whole entry, looked up, the tested form may be a part): as the sequence (P40337 whole entry, looked up) above
Chain of VHL Elongin B/C complex (Q15370 whole entry partner, looked up, the tested form may be a part): as the sequence (Q15370 whole entry partner, looked up) above
Chain of VHL Elongin B/C complex (Q15369 whole entry partner, looked up, the tested form may be a part): as the sequence (Q15369 whole entry partner, looked up) above

| Compound | IC50 (VHL Elongin B/C complex) | Kd [1] | Kd (VHL Elongin B/C complex; probe binding to VHL/Elongin B/C) |
| --- | --- | --- | --- |
| Cc1cc(C(C(=O)N2C[C@H](O)CC2C2=NC(=O)C(C)(C)N2)C(C)C)on1 (single isomer, unassigned) [Example 107.3] | > 50 µM | > 150 µM | – |
| Cc1cc(C(C(=O)N2C[C@H](O)CC2C2=NC(=O)C(C)(c3ccc(-c4scnc4C)cc3)N2)C(C)C)on1 (single isomer, unassigned) [Example 104.1] | 203 µM | 35.9 µM | – |
| Cc1cc(C(C(=O)N2C[C@H](O)CC2C2=NC(=O)C(C)(c3ccc(-c4scnc4C)cc3)N2)C(C)C)on1 (single isomer, unassigned) [Example 104.4] | 0.422 µM | 0.171 µM | – |
| CC(=O)N[C@H](C(=O)N1C[C@H](O)CC1C1=NC(=O)C(C)(c2ccc(-c3scnc3C)cc2)N1)C(C)(C)C (single isomer, unassigned) [Example 102.2] | 93.1 µM | 43.8 µM | – |
| CC(=O)N[C@H](C(=O)N1C[C@H](O)CC1C1=NC(=O)C(C)(c2ccc(Br)cc2)N1)C(C)(C)C (single isomer, unassigned) [Example 101.3] | > 200 µM | 332 µM | – |
| Cc1ncsc1-c1ccc([C@]2(C)NC(C3C[C@@H](O)CN3C(=O)C(c3cc(O)no3)C(C)C)=NC2=O)cc1 (single isomer, unassigned) [Example 116.3] | – | 150 µM | – |
| Cc1cc(C(C(=O)N2C[C@H](O)CC2C2=NC(=O)C(C)(c3ccc(-c4cccnc4C)cc3)N2)C(C)C)on1 (single isomer, unassigned) [Example 106.3] | > 400 µM | > 150 µM | – |
| CC(=O)N[C@H](C(=O)N1C[C@H](O)CC1C1=NC(=O)C(C)(c2ccc(-c3scnc3C)cc2)N1)C(C)(C)C (single isomer, unassigned) [Example 102.1] | 6.17 µM | 1.96 µM | – |
| Cc1cc(C(C(=O)N2C[C@H](O)CC2C2=NC(=O)C(C)(c3ccc(-c4cccnc4)cc3)N2)C(C)C)on1 (single isomer, unassigned) [Example 105.3] | > 400 µM | > 150 µM | – |
| Cc1cc(C(C(=O)N2C[C@H](O)CC2C2=NC(=O)C(C)(c3ccc(Br)cc3)N2)C(C)C)on1 (single isomer, unassigned) [Example 103.4] | 6.73 µM | 1.09 µM | – |
| Cc1cc(C(C(=O)N2C[C@H](O)CC2C2=NC(=O)C(C)(c3ccc(-c4cccc(=O)n4C)cc3)N2)C(C)C)on1 (single isomer, unassigned) [Example 108.1] | 57.5 µM | 13.9 µM | – |
| Cc1cc(C(C(=O)N2C[C@H](O)CC2C2=NC(=O)C(C)(C)N2)C(C)C)on1 (single isomer, unassigned) [Example 107.4] | > 50 µM | > 150 µM | – |
| CC(=O)N1CCC[C@H]1C(=O)N1C[C@H](O)CC1C1=NC(=O)[C@](C)(c2ccc(-c3scnc3C)cc2)N1 (single isomer, unassigned) [Example 121.2] | – | ≥ 150 µM | – |
| Cc1cc(C(C(=O)N2C[C@H](O)CC2C2=NC(=O)C(C)(c3ccc(-c4cccnc4C)cc3)N2)C(C)C)on1 (single isomer, unassigned) [Example 106.4] | 2.96 µM | 0.895 µM | – |
| CC(=O)N[C@H](C(=O)N1C[C@H](O)CC1C1=NC(=O)C(C)(c2ccc(Br)cc2)N1)C(C)(C)C (single isomer, unassigned) [Example 101.2] | > 200 µM | 41.6 µM | – |
| Cc1cc(C(C(=O)N2C[C@H](O)CC2C2=NC(=O)C(C)(C)N2)C(C)C)on1 (single isomer, unassigned) [Example 107.1] | – | > 150 µM | – |
| CC(=O)N[C@H](C(=O)N1C[C@H](O)CC1C1=NC(=O)C(C)(c2ccc(-c3scnc3C)cc2)N1)C(C)(C)C (single isomer, unassigned) [Example 102.3] | 43.3 µM | 10.7 µM | – |

| Compound | IC50 (VHL Elongin B/C complex) | Kd [1] | Kd (VHL Elongin B/C complex; probe binding to VHL/Elongin B/C) |
| --- | --- | --- | --- |
| CC(=O)N[C@H](C(=O)N1C[C@H](O)CC1C1=NC(=O)C(C)(c2ccc(Br)cc2)N1)C(C)(C)C (single isomer, unassigned) [Example 101.1] | > 200 µM | > 500 µM | – |
| Cc1cc(C(C(=O)N2C[C@H](O)CC2C2=NC(=O)C(C)(c3ccc(-c4cccnc4)cc3)N2)C(C)C)on1 (single isomer, unassigned) [Example 105.1] | 375 µM | 241 µM | – |
| Cc1cc(C(C(=O)N2C[C@H](O)CC2C2=NC(=O)C(C)(c3ccc(-c4cccnc4)cc3)N2)C(C)C)on1 (single isomer, unassigned) [Example 105.4] | 5.39 µM | 1.58 µM | – |
| Cc1ncsc1-c1ccc([C@]2(C)NC(C3C[C@@H](O)CN3C(=O)[C@H]3CCCN3S(C)(=O)=O)=NC2=O)cc1 (single isomer, unassigned) [Example 120.1] | – | ≥ 150 µM | – |
| CC(=O)N[C@H](C(=O)N1C[C@H](O)CC1C1=NC(=O)C(C)(c2ccc(Br)cc2)N1)C(C)(C)C (single isomer, unassigned) [Example 101.4] | 108 µM | 26.7 µM | – |
| Cc1cc([C@@H](C(=O)N2C[C@H](O)C[C@H]2C2=NOC(C)(c3ccccc3)N2)C(C)C)on1 (single isomer, unassigned) [Example 128.1] | – | ≥ 150 µM | – |
| Cc1cc(C(C(=O)N2C[C@H](O)CC2C2=NC(=O)C(C)(c3ccc(-c4cccc(=O)n4C)cc3)N2)C(C)C)on1 (single isomer, unassigned) [Example 108.2] | 11 µM | 3.95 µM | – |
| Cc1cc([C@H](C(=O)N2C[C@H](O)C[C@H]2C(=O)NCc2ccc(-c3scnc3C)cc2OCCNC(=O)c2ccc3c(c2)C(=O)OC32c3ccc(N(C)C)cc3Oc3cc(N(C)C)ccc32)C(C)C)on1 [VHL fluorescence polarization probe, (2S,4R)—N-(2-(2-(3′,6′-bis(dimethylamino)-3-oxo-3H-spiro[isobenzofuran-1,9′-xanthene]-5-carboxamido)ethoxy)-4-(4-methylthiazol-5-yl)benzyl)-4-hydroxy-1-((R)-3-methyl-2-(3-methylisoxazol-5-yl)butanoyl)pyrrolidine-2-carboxamide, reference compound] | – | – | 0.0182 µM |
| Cc1cc(C(C(=O)N2C[C@H](O)CC2C2=NC(=O)C(C)(c3ccc(-c4cccnc4)cc3)N2)C(C)C)on1 (single isomer, unassigned) [Example 105.2] | 136 µM | 113 µM | – |
| Cc1cc(C(C(=O)N2C[C@H](O)CC2C2=NC(=O)C(C)(c3ccc(-c4scnc4C)cc3)N2)C(C)C)on1 (single isomer, unassigned) [Example 104.3] | 230 µM | 44.6 µM | – |
| Cc1cc(C(C(=O)N2C[C@H](O)CC2C2=NC(=O)C(C)(c3ccc(-c4cccc(=O)n4C)cc3)N2)C(C)C)on1 (single isomer, unassigned) [Example 108.4] | > 400 µM | > 0.3 µM | – |
| Cc1cc([C@@H](C(=O)N2C[C@H](O)C[C@H]2C2=NOC(C)(C)N2)C(C)C)on1 [Example 126.2, (S)-1-((2S,4R)-2-(5,5-dimethyl-4,5-dihydro-1,2,4-oxadiazol-3-yl)-4-hydroxypyrrolidin-1-yl)-3-methyl-2-(3-methylisoxazol-5-yl)butan-1-one] | – | ≥ 150 µM | – |
| Cc1ncsc1-c1ccc([C@]2(C)NC(C3C[C@@H](O)CN3C(=O)[C@H]3CCCN3S(C)(=O)=O)=NC2=O)cc1 (single isomer, unassigned) [Example 120.2] | – | ≥ 150 µM | – |
| Cc1cc([C@@H](C(=O)N2C[C@H](O)C[C@H]2C2=NOC(C)(c3ccccc3)N2)C(C)C)on1 (single isomer, unassigned) [Example 128.2] | – | ≥ 150 µM | – |
| Cc1ncsc1-c1ccc([C@]2(C)NC(C3C[C@@H](O)CN3C(=O)C(c3cc(O)no3)C(C)C)=NC2=O)cc1 (single isomer, unassigned) [Example 116.2] | – | 150 µM | – |
| Cc1ncsc1-c1ccc([C@]2(C)NC(C3C[C@@H](O)CN3C(=O)[C@@H]3CCCN3S(C)(=O)=O)=NC2=O)cc1 (single isomer, unassigned) [Example 112.2] | – | 150 µM | – |
